Measurements from ChEMBL document CHEMBL5579877, “Design and Evaluation of 3-Phenyloxetane Derivative Agonists of the Glucagon-Like Peptide-1 Receptor” (J Med Chem, 2024).
pIC50: −log10 of the molar value. Calls of active or inactive are those of the source. The calls are words filed in the database; no cut-off is given here.

Experiments:
[1] = molecular target: T1, Cytochrome P450 2B6 (Homo sapiens, UniProt P20813); assay: Inhibition of CYP2B6 in human liver microsomes using bupropion as substrate preincubated for 5 mins followed by NADPH addition and measured after 10 mins by LC-MS/MS analysis; format: ADME, Microsome
T1 sequence (P20813 whole entry): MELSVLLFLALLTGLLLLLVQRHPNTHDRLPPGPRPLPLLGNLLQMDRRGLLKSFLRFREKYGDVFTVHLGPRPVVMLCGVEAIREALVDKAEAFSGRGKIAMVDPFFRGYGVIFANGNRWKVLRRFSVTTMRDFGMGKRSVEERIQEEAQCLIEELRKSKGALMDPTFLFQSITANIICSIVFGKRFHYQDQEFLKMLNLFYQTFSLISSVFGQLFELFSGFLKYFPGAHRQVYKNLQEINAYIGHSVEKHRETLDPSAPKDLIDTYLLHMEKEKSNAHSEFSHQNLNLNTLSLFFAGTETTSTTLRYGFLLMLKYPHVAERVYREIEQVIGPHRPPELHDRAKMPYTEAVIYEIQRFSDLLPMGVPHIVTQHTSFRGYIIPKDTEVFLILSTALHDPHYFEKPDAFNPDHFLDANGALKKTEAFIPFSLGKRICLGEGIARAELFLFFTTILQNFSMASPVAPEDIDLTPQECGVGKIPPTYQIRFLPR

[2] = molecular target: Cytochrome P450 3A4 (Homo sapiens, UniProt P08684); assay: Inhibition of CYP3A4 in human liver microsomes using midazolam as substrate preincubated for 5 mins followed by NADPH addition and measured after 5 mins by LC-MS/MS analysis; format: ADME, Microsome
[3] = Half-life in rat at 2 mg/kg, iv by LC-MS/MS analysis; format: ADME, organism-based; details: in vivo
[4] = Cmax in cynomolgus monkey at 20 mg/kg, po; format: ADME, organism-based, Macaca fascicularis; details: in vivo
[5] = molecular target: Cytochrome P450 2C9 (Homo sapiens, UniProt P11712); assay: Inhibition of CYP2C9 in human liver microsomes using diclofenac as substrate preincubated for 5 mins followed by NADPH addition and measured after 10 mins by LC-MS/MS analysis; format: ADME, Microsome
[6] = Oral bioavailability in rat at 5 mg/kg by LC-MS/MS analysis; format: ADME, organism-based; details: in vivo
[7] = molecular target: T2, 5-hydroxytryptamine receptor 1A (Homo sapiens) (UniProt P08908); assay: Inhibition of 5HT1A (unknown origin) relative to control; details: concentration not given here
T2 sequence (whole entry): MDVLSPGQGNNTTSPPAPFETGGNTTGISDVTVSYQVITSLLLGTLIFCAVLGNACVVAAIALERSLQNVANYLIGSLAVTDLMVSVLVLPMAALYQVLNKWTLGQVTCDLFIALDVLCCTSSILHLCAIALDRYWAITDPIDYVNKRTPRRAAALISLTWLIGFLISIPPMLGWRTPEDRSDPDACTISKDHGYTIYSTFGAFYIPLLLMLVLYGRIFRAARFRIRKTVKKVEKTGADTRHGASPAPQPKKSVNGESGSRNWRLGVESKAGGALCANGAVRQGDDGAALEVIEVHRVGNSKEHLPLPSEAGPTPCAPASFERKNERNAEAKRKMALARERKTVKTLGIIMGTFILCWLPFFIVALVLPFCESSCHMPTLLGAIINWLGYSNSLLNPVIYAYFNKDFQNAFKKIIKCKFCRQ

[8] = molecular target: T3, 5-hydroxytryptamine receptor 1A (Homo sapiens, UniProt P08908); assay: Inhibition of 5HT1A (unknown origin)
T3 sequence (P08908 whole entry): T2 sequence (whole entry)

[9] = molecular target: T4, Glucagon-like peptide 1 receptor (Rattus norvegicus) (UniProt P32301); assay: Activation of rat GLP-1R
T4 sequence (whole entry): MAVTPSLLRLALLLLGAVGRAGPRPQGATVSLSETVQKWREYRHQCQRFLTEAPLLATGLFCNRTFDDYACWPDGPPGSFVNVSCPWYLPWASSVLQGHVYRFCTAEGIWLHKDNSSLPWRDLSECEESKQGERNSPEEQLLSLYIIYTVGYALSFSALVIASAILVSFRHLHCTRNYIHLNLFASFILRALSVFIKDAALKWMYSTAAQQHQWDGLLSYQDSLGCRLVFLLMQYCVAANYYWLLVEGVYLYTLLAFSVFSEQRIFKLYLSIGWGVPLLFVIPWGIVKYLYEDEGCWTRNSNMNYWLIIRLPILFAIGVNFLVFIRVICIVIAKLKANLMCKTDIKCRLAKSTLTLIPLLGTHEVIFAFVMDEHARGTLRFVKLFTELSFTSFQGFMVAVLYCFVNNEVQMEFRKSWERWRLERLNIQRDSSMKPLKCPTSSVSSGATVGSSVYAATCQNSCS

[10] = Drug distribution in rat stomach at 5 mg/kg, po; format: ADME, organism-based; details: in vivo
[11] = molecular target: T5, Glucagon-like peptide 1 receptor (Homo sapiens, UniProt P43220); assay: Activation of human GLP-1R; details: filed as activator
[12] = Drug distribution in rat intestine at 5 mg/kg, po; format: ADME, organism-based; details: in vivo
[13] = molecular target: T6, Glucagon-like peptide 1 receptor (Mus musculus) (UniProt O35659); assay: Activation of mouse GLP-1R
T6 sequence (whole entry): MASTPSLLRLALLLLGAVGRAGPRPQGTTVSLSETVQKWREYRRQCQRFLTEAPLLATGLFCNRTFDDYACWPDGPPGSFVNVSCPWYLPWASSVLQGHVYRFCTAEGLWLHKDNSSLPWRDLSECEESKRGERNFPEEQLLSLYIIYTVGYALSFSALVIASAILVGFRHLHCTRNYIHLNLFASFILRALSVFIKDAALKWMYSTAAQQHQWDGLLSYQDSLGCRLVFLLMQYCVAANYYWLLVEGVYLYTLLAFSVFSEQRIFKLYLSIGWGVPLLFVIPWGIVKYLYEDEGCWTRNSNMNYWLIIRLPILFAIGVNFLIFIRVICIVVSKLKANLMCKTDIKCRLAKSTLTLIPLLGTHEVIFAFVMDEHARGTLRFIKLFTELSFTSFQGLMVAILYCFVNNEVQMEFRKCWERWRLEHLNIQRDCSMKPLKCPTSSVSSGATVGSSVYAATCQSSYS

[14] = molecular target: T5, Glucagon-like peptide 1 receptor; assay: Agonist activity at GLP-1R (unknown origin) assessed as beta-arrestin 2 recruitment; format: functional
[15] = molecular target: T7, hERG (KCNH2) (Homo sapiens, UniProt Q12809); assay: Inhibition of human ERG at 10 uM by whole cell patch clamp method relative to control; format: toxicity
[16] = molecular target: T8, 5-hydroxytryptamine receptor 2A (Homo sapiens, UniProt P28223); assay: Inhibition of 5HT2A (unknown origin) relative to control; details: concentration not given here
[17] = Efflux ratio of permeability across basolateral to apical side over apical to basolateral side in human Caco-2; format: ADME, cell-based
[18] = Drug distribution in rat liver at 5 mg/kg, po; format: ADME, organism-based; details: in vivo
[19] = molecular target: T7, hERG (KCNH2); assay: Inhibition of human ERG at 1 uM by whole cell patch clamp method relative to control; format: toxicity
[20] = molecular target: T5, Glucagon-like peptide 1 receptor; assay: Agonist activity at GLP-1R (unknown origin) assessed as beta-arrestin 1 recruitment; format: functional
[21] = species on record: Macaca mulatta; assay: Activation of monkey GLP-1R; details: filed as activator
[22] = molecular target: T8, 5-hydroxytryptamine receptor 2A; assay: Inhibition of 5HT2A (unknown origin)

T5 sequence (P43220 whole entry): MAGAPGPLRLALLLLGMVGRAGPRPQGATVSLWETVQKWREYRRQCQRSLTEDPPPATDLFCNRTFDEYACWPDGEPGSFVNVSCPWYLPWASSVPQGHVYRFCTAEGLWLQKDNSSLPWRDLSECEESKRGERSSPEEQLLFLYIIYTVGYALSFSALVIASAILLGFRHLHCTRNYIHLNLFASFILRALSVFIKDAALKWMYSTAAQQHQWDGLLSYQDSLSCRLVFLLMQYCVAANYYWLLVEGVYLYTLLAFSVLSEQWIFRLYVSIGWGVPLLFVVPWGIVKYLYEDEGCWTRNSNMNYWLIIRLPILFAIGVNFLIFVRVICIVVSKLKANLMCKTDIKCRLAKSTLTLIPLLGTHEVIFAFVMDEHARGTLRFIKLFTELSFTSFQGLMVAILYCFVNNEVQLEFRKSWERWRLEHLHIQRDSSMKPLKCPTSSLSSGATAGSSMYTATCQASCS
Cytochrome P450 3A4, sequence (P08684 whole entry): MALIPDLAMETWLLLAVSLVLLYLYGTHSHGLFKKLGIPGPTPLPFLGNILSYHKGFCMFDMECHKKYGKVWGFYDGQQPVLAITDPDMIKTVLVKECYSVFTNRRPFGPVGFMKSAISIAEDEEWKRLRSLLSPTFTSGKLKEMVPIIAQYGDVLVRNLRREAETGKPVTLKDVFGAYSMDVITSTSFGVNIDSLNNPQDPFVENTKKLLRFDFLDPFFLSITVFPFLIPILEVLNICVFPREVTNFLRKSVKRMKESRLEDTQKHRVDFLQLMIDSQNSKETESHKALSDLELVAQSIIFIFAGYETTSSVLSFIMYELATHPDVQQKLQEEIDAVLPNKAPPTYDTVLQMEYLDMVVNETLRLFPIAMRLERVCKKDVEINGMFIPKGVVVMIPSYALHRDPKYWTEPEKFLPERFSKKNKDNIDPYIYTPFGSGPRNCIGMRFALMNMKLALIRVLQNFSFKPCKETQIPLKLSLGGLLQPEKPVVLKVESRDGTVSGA
Cytochrome P450 2C9, sequence (P11712 whole entry): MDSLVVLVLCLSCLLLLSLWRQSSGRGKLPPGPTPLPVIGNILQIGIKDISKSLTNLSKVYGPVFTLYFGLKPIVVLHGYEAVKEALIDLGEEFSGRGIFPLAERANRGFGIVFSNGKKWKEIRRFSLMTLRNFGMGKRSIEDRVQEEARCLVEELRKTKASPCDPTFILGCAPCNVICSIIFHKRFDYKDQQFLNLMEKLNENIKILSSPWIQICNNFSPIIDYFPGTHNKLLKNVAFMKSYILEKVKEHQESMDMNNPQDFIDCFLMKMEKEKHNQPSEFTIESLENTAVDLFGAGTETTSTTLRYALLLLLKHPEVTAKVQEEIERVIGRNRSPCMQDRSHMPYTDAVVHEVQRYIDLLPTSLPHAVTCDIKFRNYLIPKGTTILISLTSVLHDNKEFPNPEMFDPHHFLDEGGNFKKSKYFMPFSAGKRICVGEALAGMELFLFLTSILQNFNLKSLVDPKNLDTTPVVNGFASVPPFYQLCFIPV
T7 sequence (Q12809 whole entry): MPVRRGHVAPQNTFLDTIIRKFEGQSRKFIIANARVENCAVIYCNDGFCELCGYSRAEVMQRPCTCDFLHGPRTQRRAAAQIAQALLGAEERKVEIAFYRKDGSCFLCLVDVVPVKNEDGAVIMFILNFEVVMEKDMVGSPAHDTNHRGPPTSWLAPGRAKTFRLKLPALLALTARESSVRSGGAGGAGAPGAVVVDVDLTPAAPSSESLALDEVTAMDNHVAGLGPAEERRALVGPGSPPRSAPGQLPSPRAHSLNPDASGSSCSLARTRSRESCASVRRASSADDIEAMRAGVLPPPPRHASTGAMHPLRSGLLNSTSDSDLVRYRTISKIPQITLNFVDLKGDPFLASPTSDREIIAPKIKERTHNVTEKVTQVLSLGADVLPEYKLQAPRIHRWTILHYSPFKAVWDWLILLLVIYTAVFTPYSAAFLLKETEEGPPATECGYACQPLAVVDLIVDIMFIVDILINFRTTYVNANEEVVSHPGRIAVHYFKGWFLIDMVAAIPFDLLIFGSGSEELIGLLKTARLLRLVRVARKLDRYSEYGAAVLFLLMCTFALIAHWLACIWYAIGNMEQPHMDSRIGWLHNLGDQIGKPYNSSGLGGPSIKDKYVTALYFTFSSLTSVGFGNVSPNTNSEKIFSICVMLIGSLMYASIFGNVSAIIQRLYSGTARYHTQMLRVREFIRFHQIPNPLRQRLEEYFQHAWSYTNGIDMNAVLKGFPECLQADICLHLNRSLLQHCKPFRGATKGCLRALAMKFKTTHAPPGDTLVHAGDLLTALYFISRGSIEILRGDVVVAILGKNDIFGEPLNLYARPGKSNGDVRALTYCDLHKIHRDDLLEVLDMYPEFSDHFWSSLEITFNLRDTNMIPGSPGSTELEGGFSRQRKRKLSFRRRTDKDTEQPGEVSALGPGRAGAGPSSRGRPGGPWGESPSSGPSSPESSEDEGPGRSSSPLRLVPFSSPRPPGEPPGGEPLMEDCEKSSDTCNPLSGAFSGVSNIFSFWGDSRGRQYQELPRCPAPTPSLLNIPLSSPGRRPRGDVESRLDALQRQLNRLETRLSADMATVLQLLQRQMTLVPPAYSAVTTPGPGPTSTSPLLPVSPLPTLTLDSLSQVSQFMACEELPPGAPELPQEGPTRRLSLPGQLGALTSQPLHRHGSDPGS
T8 sequence (P28223 whole entry): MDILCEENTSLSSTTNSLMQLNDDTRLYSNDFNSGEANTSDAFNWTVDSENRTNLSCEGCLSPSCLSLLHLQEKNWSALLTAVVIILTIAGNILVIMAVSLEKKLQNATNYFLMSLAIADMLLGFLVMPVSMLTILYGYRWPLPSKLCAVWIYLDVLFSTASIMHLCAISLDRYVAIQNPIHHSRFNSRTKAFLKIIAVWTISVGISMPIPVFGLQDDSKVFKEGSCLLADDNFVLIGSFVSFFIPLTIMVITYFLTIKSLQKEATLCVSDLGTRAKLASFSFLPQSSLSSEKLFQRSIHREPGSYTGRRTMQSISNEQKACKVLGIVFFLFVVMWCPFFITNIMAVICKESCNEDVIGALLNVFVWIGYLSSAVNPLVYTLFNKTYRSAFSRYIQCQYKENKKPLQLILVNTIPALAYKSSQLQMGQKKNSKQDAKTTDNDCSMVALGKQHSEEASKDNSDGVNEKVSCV

In the case of `N#Cc1ccc(COc2cccc(C3CCN(Cc4nc5ccc(C(=O)O)cc5n4C[C@@H]4CCO4)CC3)n2)c(F)c1` [DANUGLIPRON], the pIC50 [1] was < 5.00, the pIC50 [2] was < 5.00 and the half-life [3] was 19.2 min. The Cmax [4] was 163 µM, the pIC50 [5] was < 5.00 and the bioavailability [6] was 10.2%. For the same molecule, the inhibition [7] was 86.9% and the pIC50 [8] was 5.62.

For `O=C(O)c1ccc2nc(CN3CCC(c4cccc(OCc5ccc(C6COC6)cc5F)n4)CC3)n(C[C@@H]3CCO3)c2c1`, the Activity [9] was “inactive”, the Drug uptake [10] was “Active” and the pIC50 [1] was < 5.00. The Activity [11] was “Active”, the Drug uptake [12] was “Active” and the Activity [13] was “inactive”. For the same molecule, the Activity [14] was “inactive”, the inhibition at 10 µM [15] was 40.7% and the pIC50 [2] was < 5.00. The inhibition [16] was 57.8%, the half-life [3] was 12.6 min and the pIC50 [5] was < 5.00. For the same molecule, the efflux ratio [17] was 5.26, the bioavailability [6] was 12.8% and the Drug uptake [18] was “Active”. The inhibition at 1 µM [19] was 3.75%, the Activity [20] was “inactive” and the Activity [21] was “Active”. For the same molecule, the pIC50 [22] was 5.06.
